Data on eleven compounds can be found in ChEMBL document CHEMBL1909046, “DrugMatrix in vitro pharmacology data”.

Series [1] addresses T1, Amine oxidase [flavin-containing] A (Homo sapiens, UniProt P21397).
T1 sequence (P21397 whole entry): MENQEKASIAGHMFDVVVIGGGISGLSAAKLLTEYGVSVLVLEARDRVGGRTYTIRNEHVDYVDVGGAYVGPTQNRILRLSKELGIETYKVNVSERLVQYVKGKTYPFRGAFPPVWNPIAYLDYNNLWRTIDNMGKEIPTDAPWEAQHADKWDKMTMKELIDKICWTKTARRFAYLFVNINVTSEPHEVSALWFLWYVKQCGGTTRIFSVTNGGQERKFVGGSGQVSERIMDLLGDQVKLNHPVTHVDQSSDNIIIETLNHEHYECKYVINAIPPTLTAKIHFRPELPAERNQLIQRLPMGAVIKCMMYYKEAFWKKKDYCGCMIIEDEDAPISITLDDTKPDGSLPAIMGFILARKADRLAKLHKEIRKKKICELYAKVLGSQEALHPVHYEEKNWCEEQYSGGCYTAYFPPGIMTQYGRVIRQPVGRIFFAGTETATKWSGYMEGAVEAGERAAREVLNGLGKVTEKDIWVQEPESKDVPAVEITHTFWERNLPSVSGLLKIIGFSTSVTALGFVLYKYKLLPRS
Description: DRUGMATRIX: Monoamine Oxidase MAO-A enzyme inhibition (substrate: Kynuramine). Further details: species or system BTI-TN-5B1-4. As to conditions: Not Active = under 50% inhibition at 10 µM.

The next series deals with T2, Substance-K receptor (Homo sapiens, UniProt P21452).
T2 sequence (P21452 whole entry): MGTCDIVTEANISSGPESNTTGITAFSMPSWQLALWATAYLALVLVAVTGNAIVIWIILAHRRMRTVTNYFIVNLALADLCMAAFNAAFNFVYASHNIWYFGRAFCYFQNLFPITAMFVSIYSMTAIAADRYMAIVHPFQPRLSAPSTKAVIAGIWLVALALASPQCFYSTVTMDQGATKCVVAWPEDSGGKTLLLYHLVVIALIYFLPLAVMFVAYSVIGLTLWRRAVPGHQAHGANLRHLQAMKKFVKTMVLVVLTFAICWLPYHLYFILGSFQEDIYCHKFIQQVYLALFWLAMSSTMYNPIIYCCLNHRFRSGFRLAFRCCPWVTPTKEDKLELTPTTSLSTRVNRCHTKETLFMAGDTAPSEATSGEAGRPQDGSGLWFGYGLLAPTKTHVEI
Type of series: cell membranes, CHO, Membrane.

The target in a further series is Nitric oxide synthase 1 (Rattus norvegicus, UniProt P29476). Type of series: tissue-based, Cerebellum. Note: in other assays of this panel Not Active means under 50% inhibition at 10 µM.
Nitric oxide synthase 1, sequence (P29476 whole entry): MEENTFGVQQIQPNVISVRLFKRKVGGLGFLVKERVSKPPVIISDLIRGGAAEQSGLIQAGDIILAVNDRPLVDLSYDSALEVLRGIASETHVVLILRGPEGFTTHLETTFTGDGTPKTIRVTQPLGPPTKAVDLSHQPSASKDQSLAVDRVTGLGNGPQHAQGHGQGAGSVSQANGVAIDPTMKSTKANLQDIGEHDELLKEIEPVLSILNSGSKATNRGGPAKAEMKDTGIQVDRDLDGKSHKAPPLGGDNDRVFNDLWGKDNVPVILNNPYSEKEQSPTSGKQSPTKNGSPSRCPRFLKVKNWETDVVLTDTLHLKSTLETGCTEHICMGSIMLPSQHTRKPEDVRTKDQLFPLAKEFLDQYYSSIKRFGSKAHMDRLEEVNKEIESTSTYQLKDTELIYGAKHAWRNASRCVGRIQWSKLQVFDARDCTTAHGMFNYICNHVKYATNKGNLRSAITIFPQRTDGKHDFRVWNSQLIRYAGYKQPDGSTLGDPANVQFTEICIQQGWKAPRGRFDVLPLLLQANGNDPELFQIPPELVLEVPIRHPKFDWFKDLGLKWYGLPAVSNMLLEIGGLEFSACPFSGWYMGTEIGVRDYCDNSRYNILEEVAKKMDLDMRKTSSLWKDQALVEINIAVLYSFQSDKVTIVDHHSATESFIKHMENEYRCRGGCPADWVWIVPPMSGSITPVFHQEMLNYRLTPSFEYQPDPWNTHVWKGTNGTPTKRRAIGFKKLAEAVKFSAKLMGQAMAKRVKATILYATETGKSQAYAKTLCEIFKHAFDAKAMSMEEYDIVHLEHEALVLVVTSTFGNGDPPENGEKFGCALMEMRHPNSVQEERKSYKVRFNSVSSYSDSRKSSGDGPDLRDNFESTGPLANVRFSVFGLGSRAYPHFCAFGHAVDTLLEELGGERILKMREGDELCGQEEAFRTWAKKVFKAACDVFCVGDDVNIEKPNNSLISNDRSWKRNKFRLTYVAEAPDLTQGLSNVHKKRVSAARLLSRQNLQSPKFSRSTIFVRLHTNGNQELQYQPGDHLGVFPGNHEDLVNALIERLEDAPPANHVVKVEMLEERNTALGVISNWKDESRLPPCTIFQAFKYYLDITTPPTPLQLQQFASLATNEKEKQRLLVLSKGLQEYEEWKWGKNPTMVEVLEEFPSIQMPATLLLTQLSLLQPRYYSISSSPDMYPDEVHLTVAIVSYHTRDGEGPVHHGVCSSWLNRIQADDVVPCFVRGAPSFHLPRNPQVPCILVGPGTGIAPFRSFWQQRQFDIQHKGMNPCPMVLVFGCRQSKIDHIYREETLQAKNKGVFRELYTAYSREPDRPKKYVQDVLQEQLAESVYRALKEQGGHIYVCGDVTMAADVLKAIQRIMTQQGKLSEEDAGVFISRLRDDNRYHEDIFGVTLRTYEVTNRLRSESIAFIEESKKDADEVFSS
For series [2], the target named is Mitogen-activated protein kinase 14 (Homo sapiens, UniProt Q16539). Further details: species or system Escherichia coli.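 Note: inhibition of p38alpha enzyme activity in a biochemical kinase assay, with myelin basic protein serving as substrate; in other assays of this panel Not Active means under 50% inhibition at 10 µM.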
Mitogen-activated protein kinase 14, sequence (Q16539 whole entry): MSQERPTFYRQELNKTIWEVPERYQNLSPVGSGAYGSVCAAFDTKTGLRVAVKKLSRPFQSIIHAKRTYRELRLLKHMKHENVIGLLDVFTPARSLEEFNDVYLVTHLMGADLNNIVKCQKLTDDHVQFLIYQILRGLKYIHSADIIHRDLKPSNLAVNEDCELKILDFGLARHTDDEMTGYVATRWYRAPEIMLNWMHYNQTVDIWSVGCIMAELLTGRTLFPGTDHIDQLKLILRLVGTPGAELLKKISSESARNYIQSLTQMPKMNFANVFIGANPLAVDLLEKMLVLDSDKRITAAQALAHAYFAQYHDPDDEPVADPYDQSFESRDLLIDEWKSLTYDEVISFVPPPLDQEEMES
A further series addresses Adenosine receptor A2a (Homo sapiens, UniProt P29274). Description: DRUGMATRIX: Adenosine A2A radioligand binding (ligand: […]). Type of series: cell membranes, HEK293, Membrane. The conditions noted are these: Not Active = under 50% inhibition at 10 µM.
In a further series the target is Cytochrome P450 2D6 (Homo sapiens, UniProt P10635). The conditions noted are these: bti-tn-5b1-4. Note: in other assays of this panel Not Active means under 50% inhibition at 10 µM.
Cytochrome P450 2D6, sequence (P10635 whole entry): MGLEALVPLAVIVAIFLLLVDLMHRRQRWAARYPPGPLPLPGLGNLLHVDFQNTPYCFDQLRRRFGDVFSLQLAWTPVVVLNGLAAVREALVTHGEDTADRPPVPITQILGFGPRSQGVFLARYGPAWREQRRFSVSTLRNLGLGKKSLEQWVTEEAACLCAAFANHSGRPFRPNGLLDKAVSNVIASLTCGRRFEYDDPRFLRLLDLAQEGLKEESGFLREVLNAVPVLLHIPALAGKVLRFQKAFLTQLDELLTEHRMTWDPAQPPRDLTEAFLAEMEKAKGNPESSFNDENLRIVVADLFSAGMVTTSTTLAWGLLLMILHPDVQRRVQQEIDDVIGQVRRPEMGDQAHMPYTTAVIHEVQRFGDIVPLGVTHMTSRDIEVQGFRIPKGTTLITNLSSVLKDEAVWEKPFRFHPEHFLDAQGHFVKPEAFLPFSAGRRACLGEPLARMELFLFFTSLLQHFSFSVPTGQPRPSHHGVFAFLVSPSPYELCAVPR

Adenosine receptor A2a, sequence (P29274 whole entry): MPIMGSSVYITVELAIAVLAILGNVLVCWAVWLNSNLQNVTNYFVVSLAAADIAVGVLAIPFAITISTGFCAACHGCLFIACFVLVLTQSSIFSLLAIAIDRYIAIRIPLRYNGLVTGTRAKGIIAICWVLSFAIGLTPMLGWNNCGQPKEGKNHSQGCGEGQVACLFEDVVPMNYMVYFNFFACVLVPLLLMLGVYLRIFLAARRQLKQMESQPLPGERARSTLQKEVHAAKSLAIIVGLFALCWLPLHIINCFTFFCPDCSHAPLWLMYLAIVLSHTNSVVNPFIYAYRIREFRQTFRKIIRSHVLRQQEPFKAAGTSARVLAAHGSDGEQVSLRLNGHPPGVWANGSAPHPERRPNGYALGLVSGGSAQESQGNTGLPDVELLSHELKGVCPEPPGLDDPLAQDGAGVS

As for `COc1ccc2[nH]c([S+]([O-])Cc3ncc(C)c(OC)c3C)nc2c1` (centres undefined) [OMEPRAZOLE], the half-inhibitory concentration (IC50) entry (in series [1] (bti-tn-5b1-4); against Substance-K receptor (cho); at Nitric oxide synthase 1; in series [2]; on Adenosine receptor A2a (hek293); on Cytochrome P450 2D6) was “Not Active” in each case. The Ki entry at Cytochrome P450 2D6 is listed as “Not Active”.

In the case of `Cc1nccn1CC1CCc2c(c3ccccc3n2C)C1=O` (centres undefined) [ONDANSETRON], the IC50 entry (in series [1] (bti-tn-5b1-4); on Substance-K receptor (cho); against Nitric oxide synthase 1; in series [2]; at Adenosine receptor A2a (hek293); on Cytochrome P450 2D6) was “Not Active” throughout. Also, at Cytochrome P450 2D6, the Ki entry was “Not Active”.

On to `CCCCOc1ccc(OCCCN2CCOCC2)cc1` [PRAMOXINE], for which the concentration for half-maximal inhibition (IC50) result (in series [1] (bti-tn-5b1-4); against Substance-K receptor (cho); on Nitric oxide synthase 1; in series [2]; at Adenosine receptor A2a (hek293); against Cytochrome P450 2D6) was “Not Active” each time. Besides, the Ki result at Cytochrome P450 2D6 was “Not Active”.

For `O=C(C1CCCCC1)N1CC(=O)N2CCc3ccccc3C2C1` (centres undefined) [PRAZIQUANTEL], the IC50 result (in series [1] (bti-tn-5b1-4); against Substance-K receptor (cho); against Nitric oxide synthase 1; in series [2]; at Adenosine receptor A2a (hek293); against Cytochrome P450 2D6) was “Not Active” throughout. In addition, the Ki result on Cytochrome P450 2D6 is “Not Active”.

Take `CCN(CC)CCOC(=O)c1ccc(N)cc1` [PROCAINE]: the IC50 result (in series [1] (bti-tn-5b1-4); against Substance-K receptor (cho); on Nitric oxide synthase 1; in series [2]; at Adenosine receptor A2a (hek293); at Cytochrome P450 2D6) was “Not Active” throughout. Also, on Cytochrome P450 2D6, the Ki entry is “Not Active”.

For `CCCN(CCC)C(=O)C(CCC(=O)O)NC(=O)c1ccccc1` (centres undefined) [PROGLUMIDE], the half-maximal inhibitory concentration (IC50) entry (in series [1] (bti-tn-5b1-4); against Substance-K receptor (cho); on Nitric oxide synthase 1; in series [2]; at Adenosine receptor A2a (hek293); against Cytochrome P450 2D6) was “Not Active” each time. Further, the Ki entry at Cytochrome P450 2D6 is given as “Not Active”.

`NC(=O)c1cnccn1` [PYRAZINAMIDE]: the IC50 entry (in series [1] (bti-tn-5b1-4); against Substance-K receptor (cho); against Nitric oxide synthase 1; in series [2]; at Adenosine receptor A2a (hek293); against Cytochrome P450 2D6) was “Not Active” throughout. The Ki entry at Cytochrome P450 2D6 was “Not Active”.

As to `Cc1cc2cc3c(C)cc(=O)oc3c(C)c2o1` [TRIOXSALEN], the IC50 is 831 nM in series [1] (read-out: IC50); “Not Active” against Substance-K receptor (cho); “Not Active” at Nitric oxide synthase 1; “Not Active” in series [2]; 1310 nM on Adenosine receptor A2a (read-out: IC50); “Not Active” at Cytochrome P450 2D6. Further, the results for the inhibition constant (Ki) at Adenosine receptor A2a (read-out: Ki) and at Cytochrome P450 2D6 were 737 nM and “Not Active”, respectively.

`CCCC(CCC)C(=O)O` [VALPROIC ACID]: the IC50 entry (in series [1] (bti-tn-5b1-4); at Substance-K receptor (cho); at Nitric oxide synthase 1; in series [2]; at Adenosine receptor A2a (hek293); against Cytochrome P450 2D6) was “Not Active” throughout. Also, the Ki entry on Cytochrome P450 2D6 is “Not Active”.

On to `CCC1=C[C@@H]2CN(C1)Cc1c([nH]c3ccccc13)[C@@](C(=O)OC)(c1cc3c(cc1OC)N(C)[C@H]1[C@@](O)(C(=O)OC)[C@H](OC(C)=O)[C@]4(CC)C=CCN5CC[C@]31[C@@H]54)C2` [VINORELBINE], for which the IC50 entry was “Not Active” in series [1] (bti-tn-5b1-4); 1610 nM at Substance-K receptor (read-out: IC50); “Not Active” at Nitric oxide synthase 1; “Not Active” in series [2]; “Not Active” at Adenosine receptor A2a (hek293); “Not Active” against Cytochrome P450 2D6. Also, the Ki is 536 nM at Substance-K receptor (read-out: Ki) and “Not Active” at Cytochrome P450 2D6.

Regarding CADMIUM DICHLORIDE, the IC50 entry (in series [1] (bti-tn-5b1-4); at Substance-K receptor (cho); against Nitric oxide synthase 1; in series [2]; on Adenosine receptor A2a (hek293); at Cytochrome P450 2D6) was “Not Active” throughout. Further, the inhibition constant (Ki) result (in series [1] (bti-tn-5b1-4); on Substance-K receptor (cho); at Nitric oxide synthase 1; in series [2]; on Adenosine receptor A2a (hek293); at Cytochrome P450 2D6) was “Not Active” in each case.
